Calls of active or inactive are those of the source. No cut-off for these calls is given here.
What follows are compounds tested on HCT-116 (assay: Antiproliferative activity against human HCT-116 cells assessed as reduction in cell viability by MTT assay).
Assay type: functional, cell-based
Compound `O=c1[nH]cc(F)c(=O)[nH]1` [FLUOROURACIL] has an IC50 of 19.3 µM. For `O=C1C=C(NCCCNc2ccnc3cc(Cl)ccc23)C(=O)c2ccccc21`, the IC50 was 11.5 µM. With `O=C1C=C(NCc2ccccc2)C(=O)c2ccccc21` the IC50 was 130 µM. Compound `O=C1C=C(NCCO)C(=O)c2ccccc21` has an IC50 of 70.3 µM. `CS(=O)(=O)OCCNC1=CC(=O)c2ccccc2C1=O` was tested, and the IC50 was 16.3 µM. Work on `CNC1=CC(=O)c2ccccc2C1=O` yielded an IC50 of 55.7 µM. `NCCCNC1=CC(=O)c2ccccc2C1=O` showed an IC50 of 59.6 µM. `O=C1C=C(NCCCNc2nc(N3CCOCC3)nc(N3CCOCC3)n2)C(=O)c2ccccc21` showed an IC50 of 57.5 µM. In the case of `Cc1ccc(S(=O)(=O)OCCNC2=CC(=O)c3ccccc3C2=O)cc1`, the IC50 is reported as 81.8 µM. `O=C1C=C(NCc2ccccn2)C(=O)c2ccccc21` showed an IC50 of 13.5 µM. With `O=C1C=C(N2CCCC2)C(=O)c2ccccc21` the IC50 was 159 µM.

What follows are compounds tested on PC-3 (assay: Antiproliferative activity against human PC-3 cells assessed as reduction in cell viability by MTT assay).
Assay type: functional, cell-based
Work on `O=c1[nH]cc(F)c(=O)[nH]1` [FLUOROURACIL] yielded an IC50 of 32.9 µM. `O=C1C=C(NCCCNc2ccnc3cc(Cl)ccc23)C(=O)c2ccccc21` was tested, and the IC50 was 8.39 µM. `O=C1C=C(NCc2ccccc2)C(=O)c2ccccc21` gave an IC50 of 70.6 µM. `O=C1C=C(NCCO)C(=O)c2ccccc21` showed an IC50 of 107 µM. `CS(=O)(=O)OCCNC1=CC(=O)c2ccccc2C1=O` gave an IC50 of 62.8 µM. With `CNC1=CC(=O)c2ccccc2C1=O` the IC50 was 93.3 µM. Compound `NCCCNC1=CC(=O)c2ccccc2C1=O` has an IC50 of 63.2 µM. For `O=C1C=C(NCCCNc2nc(N3CCOCC3)nc(N3CCOCC3)n2)C(=O)c2ccccc21`, the IC50 was 41.8 µM. With `Cc1ccc(S(=O)(=O)OCCNC2=CC(=O)c3ccccc3C2=O)cc1` the IC50 was 59.2 µM. With `O=C1C=C(NCc2ccccn2)C(=O)c2ccccc21` the IC50 was 16.5 µM. With `O=C1C=C(N2CCCC2)C(=O)c2ccccc21` the IC50 was over 200 µM.

These compounds were tested on HL-60 (assay: Antiproliferative activity against human HL-60 cells assessed as reduction in cell viability by MTT assay).
Assay type: functional, cell-based
`O=C1C=C(NCCCNc2ccnc3cc(Cl)ccc23)C(=O)c2ccccc21` gave an IC50 of 4.78 µM. With `O=C1C=C(NCc2ccccc2)C(=O)c2ccccc21` the IC50 was 86.5 µM. With `O=C1C=C(NCCO)C(=O)c2ccccc21` the IC50 was 49.8 µM. With `CS(=O)(=O)OCCNC1=CC(=O)c2ccccc2C1=O` the IC50 was 27.5 µM. `CNC1=CC(=O)c2ccccc2C1=O` gave an IC50 of 41.4 µM. Compound `NCCCNC1=CC(=O)c2ccccc2C1=O` has an IC50 of 30 µM. In the case of `O=C1C=C(NCCCNc2nc(N3CCOCC3)nc(N3CCOCC3)n2)C(=O)c2ccccc21`, the IC50 is reported as 53.4 µM. `Cc1ccc(S(=O)(=O)OCCNC2=CC(=O)c3ccccc3C2=O)cc1` showed an IC50 of over 200 µM. With `O=C1C=C(NCc2ccccn2)C(=O)c2ccccc21` the IC50 was 4.59 µM. With `COc1cccc2c1C(=O)c1c(O)c3c(c(O)c1C2=O)C[C@@](O)(C(=O)CO)C[C@@H]3O[C@H]1C[C@H](N)[C@H](O)[C@H](C)O1` [DOXORUBICIN] the IC50 was 2.05 µM. `O=C1C=C(N2CCCC2)C(=O)c2ccccc21` showed an IC50 of 111 µM.

The compounds below were run on SNB-19 (assay: Antiproliferative activity against human SNB-19 cells assessed as reduction in cell viability by MTT assay).
Assay type: functional, cell-based
`O=C1C=C(NCCCNc2ccnc3cc(Cl)ccc23)C(=O)c2ccccc21` gave an IC50 of 16.9 µM. For `O=C1C=C(NCc2ccccc2)C(=O)c2ccccc21`, the IC50 was 80 µM. `O=C1C=C(NCCO)C(=O)c2ccccc21` was tested, and the IC50 was 108 µM. With `CS(=O)(=O)OCCNC1=CC(=O)c2ccccc2C1=O` the IC50 was 31.2 µM. `CNC1=CC(=O)c2ccccc2C1=O` gave an IC50 of 114 µM. Work on `NCCCNC1=CC(=O)c2ccccc2C1=O` yielded an IC50 of 71.3 µM. Compound `O=C1C=C(NCCCNc2nc(N3CCOCC3)nc(N3CCOCC3)n2)C(=O)c2ccccc21` has an IC50 of 126 µM. Compound `Cc1ccc(S(=O)(=O)OCCNC2=CC(=O)c3ccccc3C2=O)cc1` has an IC50 of 21.1 µM. With `O=C1C=C(NCc2ccccn2)C(=O)c2ccccc21` the IC50 was 23.1 µM. Compound `COc1cccc2c1C(=O)c1c(O)c3c(c(O)c1C2=O)C[C@@](O)(C(=O)CO)C[C@@H]3O[C@H]1C[C@H](N)[C@H](O)[C@H](C)O1` [DOXORUBICIN] has an IC50 of 0.76 µM. `O=C1C=C(N2CCCC2)C(=O)c2ccccc21` showed an IC50 of over 200 µM.

Each compound was assayed on HCT-116 (assay: Induction of cell cycle arrest in human HCT-116 cells assessed as accumulation at S phase at 20 uM after 24 hrs by PI-staining based flow cytometric analysis (reference value: 39.7%)).
Assay type: functional
With `O=c1[nH]cc(F)c(=O)[nH]1` [FLUOROURACIL] the Activity was 66.6%. In the case of `O=C1C=C(NCc2ccccn2)C(=O)c2ccccc21`, the Activity is reported as 47.57%.

These compounds were tested on HCT-116 (assay: Induction of cell cycle arrest in human HCT-116 cells after 24 hrs by PI-staining based flow cytometric analysis).
Assay type: functional
In the case of `O=C1C=C(NCCCNc2ccnc3cc(Cl)ccc23)C(=O)c2ccccc21`, the Activity is reported as “inactive”.
